# Assays:
# NPY Y1-Rs = target: T1, NPY Y1-Rs (Mus musculus, UniProt Q04573); experiment: Effect of pretreatment with 1 (BMS-193885) on tissue distribution of radioactivity; assay type: in vivo, mice; details: 30 min post-injection, 1 10 mg/kg 20-30 min before tracer, vs control
# T1 construct: in the lung, spleen, and kidney, which are rich in NPY Y1-Rs; from tissue; host or cells: organs of living mice (blood, heart, lung, spleen, kidney, liver, pancreas, muscle, brain etc.)
# T1 sequence (Q04573 1-382): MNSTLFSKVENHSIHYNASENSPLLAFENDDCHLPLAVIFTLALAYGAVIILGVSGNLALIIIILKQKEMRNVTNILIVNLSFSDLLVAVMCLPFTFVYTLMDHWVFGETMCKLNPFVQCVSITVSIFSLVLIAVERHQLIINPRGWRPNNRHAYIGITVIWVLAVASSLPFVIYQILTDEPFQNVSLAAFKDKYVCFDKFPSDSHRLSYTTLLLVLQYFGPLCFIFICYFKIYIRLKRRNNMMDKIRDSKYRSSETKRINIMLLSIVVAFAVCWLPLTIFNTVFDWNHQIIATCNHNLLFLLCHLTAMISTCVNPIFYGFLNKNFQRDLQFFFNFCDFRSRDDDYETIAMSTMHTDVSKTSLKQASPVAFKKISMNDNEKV
# Description: [^11C]1 (7.1–14 MBq/0.079–0.23 nmol) or [^11C]2 (6.0 MBq/0.16 nmol) was intravenously injected into mice (aged 7–8 weeks, weighing 32–36 g, n = 4–8) 20–30 min after the administration of the solution of 1 (10 mg/kg body weight [b.w.]/0.1 mL water containing 20% Tween 80), elacridar (5 mg/kg b.w./0.1 mL water), or a control fluid (0.1 mL water). Mice were euthanized by cervical dislocation at 30 min post-injection.
# Blood samples were collected by heart puncture. Tissues were dissected and weighed. […] The tissue uptake of radioactivity was expressed as the percentage of injected dose detected per gram of sample (%ID/g, tissue radioactivity/g tissue/injected radioactivity × 100).
# [1] = Analysis of metabolites in mouse plasma (radio-HPLC); assay type: in vivo, mice
# Description: [^11C]1 (37–56 MBq/0.73–0.95 nmol) or [^11C]2 (46–61 MBq/1.1–1.5 nmol) was intravenously injected into mice (aged 7–9 weeks, weighing 33–43 g, n = 4). Mice were euthanized by cervical dislocation at 30 min post-injection. Blood samples taken by heart puncture were collected into heparinized syringes. Samples were centrifuged at 13,000×g (Model 5500, KUBOTA, Tokyo, Japan) for 3 min at 4 °C to obtain plasma (0.1–0.2 mL). Plasma samples were added to equivalent volumes of 1 mol/L ammonium acetate solution. Samples were directly loaded into the injector loop, and analyzed using the combination of column-switching HPLC and on-line solid-phase extraction as a modification of the previously described procedures (Chitneni et al. [2008]; Gillings [2009]; Greuter et al. [2005]; Hilton et al. [2000]; Kawamura et al. [2013]). HPLC analysis was performed using the radio-HPLC system for metabolite analysis mentioned in the ‘General’ section above, and also using a Cadenza HS-C18 column (3 μm mesh, 10 mm i.d. × 150 mm length; Imtakt, Kyoto, Japan) fitted with a Cadenza HS-C18 guard cartridge (3 μm mesh, 10 mm i.d. × 8 mm length; Imtakt). Elution was performed using a 0.1 mol/L ammonium acetate solution for 3 min after loading, a mixture of 90% acetonitrile solution and water (0:100 to 40:60, vol./vol.) from 3 to 4 min after loading, and then a mixture of 90% acetonitrile solution and water (40:60, vol./vol.) from 4 to 12 min after loading. The flow rate was 4 mL/min. The retention times of [^11C]1 and [^11C]2 were 10.0 and 10.5 min, respectively.
# [2] = Biodistribution of radioactivity in mice after tracer injection; assay type: in vivo; details: mean±S.D. n=4
# Description: [^11C]1 (13 MBq/0.12 nmol) or [^11C]2 (15 MBq/0.36 nmol) was intravenously injected into mice (aged 7–8 weeks, weighing 33–38 g, n = 4). Mice were euthanized by cervical dislocation at 5, 15, 30, or 60 min post-injection.
# Blood samples were collected by heart puncture. Tissues were dissected and weighed. The radioactivity in samples was measured with an automatic gamma counter (Wizard 3′′ 1480, PerkinElmer, Waltham, MA, USA). The tissue uptake of radioactivity was expressed as the percentage of injected dose detected per gram of sample (%ID/g, tissue radioactivity/g tissue/injected radioactivity × 100).
smiles,measurement,setting,value
COC(=O)C1=C(C)NC(C)=C(C(=O)OC)C1c1cccc(NC(=O)NCCCN2CCC(c3cccc(O[11CH3])c3)CC2)c1 [[^11C]1],Change of radioactivity level in blood by pretreatment with 1,NPY Y1-Rs; blood,not changed
same,Change of radioactivity level in brain by pretreatment with 1,NPY Y1-Rs; brain,not changed
same,Change of radioactivity level in heart by pretreatment with 1,NPY Y1-Rs; heart,not changed
same,Change of radioactivity level in kidney by pretreatment with 1,NPY Y1-Rs; kidney,significantly decreased
same,Change of radioactivity level in lung by pretreatment with 1,NPY Y1-Rs; lung,significantly decreased
same,Change of radioactivity level in muscle by pretreatment with 1,NPY Y1-Rs; muscle,not changed
same,Change of radioactivity level in pancreas by pretreatment with 1,NPY Y1-Rs; pancreas,not changed
same,Change of radioactivity level in spleen by pretreatment with 1,NPY Y1-Rs; spleen,significantly decreased
same,Percentage of intact tracer in plasma,"[1]; mouse plasma, 30 min post-injection, radio-HPLC, n=4",11.8 ± 2.5%
same,Metabolism in vivo (mouse plasma),[1]; within 30 min post-injection,rapidly metabolized
same,"Radioactivity level, blood",[2]; 5 min after i.v. injection,0.76±0.07 %ID/g
same,"Radioactivity level, blood",[2]; 15 min after i.v. injection,0.60±0.06 %ID/g
same,"Radioactivity level, blood",[2]; 30 min after i.v. injection,0.50±0.04 %ID/g
same,"Radioactivity level, blood",[2]; 60 min after i.v. injection,0.46±0.06 %ID/g
same,"Radioactivity level, brain",[2]; 5 min after i.v. injection,0.21±0.01 %ID/g
same,"Radioactivity level, brain",[2]; 15 min after i.v. injection,0.40±0.06 %ID/g
same,"Radioactivity level, brain",[2]; 30 min after i.v. injection,0.32±0.05 %ID/g
same,"Radioactivity level, brain",[2]; 60 min after i.v. injection,0.32±0.05 %ID/g
same,"Radioactivity level, heart",[2]; 5 min after i.v. injection,1.93±0.23 %ID/g
same,"Radioactivity level, heart",[2]; 15 min after i.v. injection,1.38±0.04 %ID/g
same,"Radioactivity level, heart",[2]; 30 min after i.v. injection,1.10±0.05 %ID/g
same,"Radioactivity level, heart",[2]; 60 min after i.v. injection,0.82±0.07 %ID/g
same,"Radioactivity level, kidney",[2]; 5 min after i.v. injection,17.41±1.12 %ID/g
same,"Radioactivity level, kidney",[2]; 15 min after i.v. injection,14.06±1.00 %ID/g
same,"Radioactivity level, kidney",[2]; 30 min after i.v. injection,12.93±1.01 %ID/g
same,"Radioactivity level, kidney",[2]; 60 min after i.v. injection,13.37±2.72 %ID/g
same,"Radioactivity level, liver",[2]; 5 min after i.v. injection,16.09±1.85 %ID/g
same,"Radioactivity level, liver",[2]; 15 min after i.v. injection,8.82±2.28 %ID/g
same,"Radioactivity level, liver",[2]; 30 min after i.v. injection,5.05±0.40 %ID/g
same,"Radioactivity level, liver",[2]; 60 min after i.v. injection,4.09±1.60 %ID/g
same,"Radioactivity level, lung",[2]; 5 min after i.v. injection,5.08±1.12 %ID/g
same,"Radioactivity level, lung",[2]; 15 min after i.v. injection,3.43±0.28 %ID/g
same,"Radioactivity level, lung",[2]; 30 min after i.v. injection,2.72±0.21 %ID/g
same,"Radioactivity level, lung",[2]; 60 min after i.v. injection,2.13±0.36 %ID/g
same,"Radioactivity level, muscle",[2]; 5 min after i.v. injection,0.64±0.05 %ID/g
same,"Radioactivity level, muscle",[2]; 15 min after i.v. injection,0.57±0.08 %ID/g
same,"Radioactivity level, muscle",[2]; 30 min after i.v. injection,0.52±0.11 %ID/g
same,"Radioactivity level, muscle",[2]; 60 min after i.v. injection,0.47±0.07 %ID/g
same,"Radioactivity level, pancreas",[2]; 5 min after i.v. injection,3.40±0.46 %ID/g
same,"Radioactivity level, pancreas",[2]; 15 min after i.v. injection,3.75±0.35 %ID/g
same,"Radioactivity level, pancreas",[2]; 30 min after i.v. injection,3.64±0.22 %ID/g
same,"Radioactivity level, pancreas",[2]; 60 min after i.v. injection,3.70±0.41 %ID/g
same,"Radioactivity level, small intestine",[2]; 5 min after i.v. injection,6.98±2.37 %ID/g
same,"Radioactivity level, small intestine",[2]; 15 min after i.v. injection,9.11±1.31 %ID/g
same,"Radioactivity level, small intestine",[2]; 30 min after i.v. injection,11.02±1.44 %ID/g
same,"Radioactivity level, small intestine",[2]; 60 min after i.v. injection,12.43±1.54 %ID/g
same,"Radioactivity level, spleen",[2]; 5 min after i.v. injection,3.18±0.67 %ID/g
same,"Radioactivity level, spleen",[2]; 15 min after i.v. injection,2.05±0.17 %ID/g
same,"Radioactivity level, spleen",[2]; 30 min after i.v. injection,1.66±0.04 %ID/g
same,"Radioactivity level, spleen",[2]; 60 min after i.v. injection,1.41±0.24 %ID/g

# Reference: publication PMC6379498, “Radiosynthesis and in vivo evaluation of ^11C-labeled BMS-193885 and its desmethyl analog as PET tracers for neuropeptide Y1 receptors” (EJNMMI Radiopharmacy and Chemistry, 2019)
